Article PMC7449217, “The FDA-Approved Drug Nelfinavir Inhibits Lytic Cell-Free but Not Cell-Associated Nonlytic Transmission of Human Adenovirus” (Antimicrobial Agents and Chemotherapy, 2020)
Counter-ions that a name gives are not always drawn.

Columns and labels:
Type in all cases: cell-based, human adenovirus
HAdV-A31 = assay: fluorescence-based plaque-forming assay, HCE cells; conditions: HAdV-A31 in HCE
Procedure: (§1) Per 96-well plate, 15,000 A549 cells, 10,000 HeLa cells, 30,000 HBECs, 30,000 HCE cells, or 30,000 CMT-93 cells were seeded in 100 μl of the respective supplemented medium and allowed to settle for 1 h at room temperature (RT) prior to cell culture incubation at 37°C with 5% CO2 and 95% humidity. The following day, the medium was replaced with 50 μl of the respective virus stock dilution giving rise to 5 to 50 plaques per 96-well plate. Fifty microliters of nelfinavir to obtain a 0.1 to 50 μM final concentration or the DMSO solvent control was also added, both in supplemented medium. For each experiment, a noninfected, treated control was performed. For uphill plaque assays, the medium volume was increased to 150 μl with identical virus and drug concentrations. For wash-in/washout experiments, the virus was incubated on cells in supplemented medium for 1 h at 37°C, cells were washed with PBS, and a 100-μl drug dilution in supplemented medium was added. All experiments were performed in four technical replicates or as indicated. Cells were incubated under standard cell culture conditions. At the indicated times postinfection, the cells were fixed, and the nuclei were stained for 1 h at RT by the addition of 33 μl 16% (wt/vol) paraformaldehyde (PFA) and 4 μg/ml Hoechst 33342 (Sigma-Aldrich, St. Louis, MO, USA) in PBS. Cells were washed three times with PBS and stored in PBS supplemented with 0.02% N3 for infections with viruses harboring a GFP transgene. For wild-type (wt) viruses, cells were quenched in PBS supplemented with 50 mM NH4Cl, permeabilized using 0.2% (vol/vol) Triton X-100 in PBS, and blocked with 0.5% (wt/vol) bovine serum albumin (BSA) in PBS. […] Plates were imaged on either an IXM-XL or an IXM-C automated high-throughput fluorescence microscope (Molecular Devices, San Jose, CA, USA) using a 4× objective in wide-field mode. Hoechst staining was recorded in the 4′,6-diamidino-2-phenylindole (DAPI) channel, the fluorescein isothiocyanate (FITC)/GFP channel was acquired for viral GFP, and the tetramethyl rhodamine isothiocyanate (TRITC)/Texas Red channel was acquired for hexon immunofluorescence staining.
(§2) The infection phenotype for each well was quantified using Plaque2.0 ([101]). The number of plaques was determined based on the infection signal (viral GFP or hexon immunofluorescence staining). […] Data were plotted, and the EC50 (infected and treated cells), the TC50 (noninfected, treated cells), as well as the corresponding standard errors (SE) were determined using curve fitting in GraphPad (version 8.1.2; GraphPad Software, Inc.) using three-parameter inhibitor concentration-versus-response nonlinear regression. The mean TI50 was calculated as the […] ratio of the means. The TI50 SE was calculated by error propagation.

HAdV-C2-dE3B-GFP [1] = assay: fluorescence-based plaque-forming assay, HCE cells
Procedure: as §1, §2

HAdV-C2-dE3B-GFP [2] = assay: fluorescence-based plaque-forming assay, HeLa cells; conditions: for TI50 (TC50/IC50): HAdV-C2-dE3B-GFP in HeLa, 4 dpi, GFP
Procedure: (§3) Per 96-well plate, 15,000 A549 cells, 10,000 HeLa cells, 30,000 HBECs, 30,000 HCE cells, or 30,000 CMT-93 cells were seeded in 100 μl of the respective supplemented medium and allowed to settle for 1 h at room temperature (RT) prior to cell culture incubation at 37°C with 5% CO2 and 95% humidity. The following day, the medium was replaced with 50 μl of the respective virus stock dilution giving rise to 5 to 50 plaques per 96-well plate. Fifty microliters of nelfinavir to obtain a 0.1 to 50 μM final concentration or the DMSO solvent control was also added, both in supplemented medium. For each experiment, a noninfected, treated control was performed. For uphill plaque assays, the medium volume was increased to 150 μl with identical virus and drug concentrations. For wash-in/washout experiments, the virus was incubated on cells in supplemented medium for 1 h at 37°C, cells were washed with PBS, and a 100-μl drug dilution in supplemented medium was added. All experiments were performed in four technical replicates or as indicated. Cells were incubated under standard cell culture conditions. At the indicated times postinfection, the cells were fixed, and the nuclei were stained for 1 h at RT by the addition of 33 μl 16% (wt/vol) paraformaldehyde (PFA) and 4 μg/ml Hoechst 33342 (Sigma-Aldrich, St. Louis, MO, USA) in PBS. Cells were washed three times with PBS and stored in PBS supplemented with 0.02% N3 for infections with viruses harboring a GFP transgene. For wild-type (wt) viruses, cells were quenched in PBS supplemented with 50 mM NH4Cl, permeabilized using 0.2% (vol/vol) Triton X-100 in PBS, and blocked with 0.5% (wt/vol) bovine serum albumin (BSA) in PBS. Cells were incubated with 381.7 ng/ml mouse anti-HAdV hexon protein antibody (Mab8052; Sigma-Aldrich, St. Louis, MO, USA) and subsequently stained using 2 μg/ml goat anti-mouse-Alexa Fluor 594 (catalog number A21203 or A32742; Thermo Fisher Scientific, Waltham, MA, USA). Plates were imaged on either an IXM-XL or an IXM-C automated high-throughput fluorescence microscope (Molecular Devices, San Jose, CA, USA) using a 4× objective in wide-field mode. Hoechst staining was recorded in the 4′,6-diamidino-2-phenylindole (DAPI) channel, the fluorescein isothiocyanate (FITC)/GFP channel was acquired for viral GFP, and the tetramethyl rhodamine isothiocyanate (TRITC)/Texas Red channel was acquired for hexon immunofluorescence staining.
(§4) The infection phenotype for each well was quantified using Plaque2.0 ([101]). The number of plaques was determined based on the infection signal (viral GFP or hexon immunofluorescence staining). Nuclei stained with Hoechst were segmented by using CellProfiler ([178]). Infected nuclei were classified based on the median infection signal per nucleus in CellProfiler. Data were plotted, and the EC50 (infected and treated cells), the TC50 (noninfected, treated cells), as well as the corresponding standard errors (SE) were determined using curve fitting in GraphPad (version 8.1.2; GraphPad Software, Inc.) using three-parameter inhibitor concentration-versus-response nonlinear regression. The mean TI50 was calculated as the […] ratio of the means. The TI50 SE was calculated by error propagation.

HAdV-C2-dE3B-GFP-dADP = assay: as above; conditions: for TI50 (TC50/IC50): HAdV-C2-dE3B-GFP-dADP in HeLa, 5 dpi, GFP
Procedure: as §3, §4

HAdV-C2-dE3B-GFP [3] = assay: quantification of infectious progeny in the supernatant, titration on A549 cells; conditions: 1.25 μM, 7 dpi, HAdV-C2-dE3B-GFP-infected A549 cells
Procedure: A549 cells were seeded at 480,000 cells per 6-well plate in full DMEM and infected at 1,100 PFU HAdV-C2-dE3B-GFP per well the next day. Following 1 h of warm incubation, the supernatant was removed, and cells were washed with PBS and detached by trypsin digestion. Infected cells were centrifuged and resuspended in fresh medium to remove any unbound input virus and seeded at 180,000 cells/12-well plate in medium supplemented with 1.25, 3, or 10 μM nelfinavir or equivalent amounts of the DMSO solvent control. At the indicated times postinfection, the supernatant was harvested and cleared by centrifugation. Two hundred microliters of PBS/well was added to the infected monolayer. Cells were disrupted by three freeze-thaw cycles, and freon extraction was performed. The supernatant and cell lysate were stored at 4°C until titration on naive A549 cells. PFA-fixed, Hoechst-stained cells were imaged at 44 hpi using a 4× objective (NA, 0.20) on an IXM-XL epifluorescence microscope (Molecular Devices, San Jose, CA, USA). GFP-positive infected cells were classified based on the median nuclear GFP intensity using automated image analysis by CellProfiler ([178]).
Four hundred eighty thousand A549 cells were seeded per 6-well dish, inoculated with 1,100 PFU HAdV-C2-dE3B-GFP/well for 1 h at 37°C, washed with PBS, and detached by trypsin digestion. […]

HAdV-C2-dE3B-GFP [4] = assay: quantification of viral protein expression (CMV-GFP, hexon) in infected A549 cells; conditions: 46 hpi, at the tested concentrations
Procedure: Infection, HAdV hexon immunofluorescence staining, and imaging were performed in technical quadruplicates, as described above for the microscopic plaque assay. Single nuclei (Hoechst) were segmented using CellProfiler ([178]). Median GFP and hexon signals per nucleus were measured, and infected nuclei were classified using the median GFP or hexon signal per nucleus. Subsequently, the mean and standard deviation (SD) over all infected nuclei per well were calculated using R version 3.3.2 ([179]). Data were plotted using GraphPad (version 8.1.2; GraphPad Software, Inc.).

## Cc1c(O)cccc1C(=O)N[C@@H](CSc1ccccc1)[C@H](O)CN1C[C@H]2CCCC[C@H]2C[C@H]1C(=O)NC(C)(C)C [Nelfinavir, Nelfinavir mesylate]
HAdV-A31; 8 dpi, Hexon
  TI50 (TC50/IC50): 1.08
HAdV-A31; Human adenovirus sp., fixation 8 dpi, read-out Hexon, plaque numbers
  EC50: 18.1 µM
HAdV-C2-dE3B-GFP [1]; HAdV-C2-dE3B-GFP in HCE, 5 dpi, GFP
  TI50 (TC50/IC50): 54.04
HAdV-C2-dE3B-GFP [1]; Human adenovirus sp., HCE
  EC50: 550 nM
HAdV-C2-dE3B-GFP [2]
  TI50 (TC50/IC50): 61.03
HAdV-C2-dE3B-GFP [2]; listed as nelfinavir
  TI50 (TC50/IC50): 61.0
HAdV-C2-dE3B-GFP [2]; Human adenovirus sp., HeLa
  EC50: 490 nM
HAdV-C2-dE3B-GFP-dADP
  TI50 (TC50/IC50): 8.91
HAdV-C2-dE3B-GFP-dADP; listed as nelfinavir
  TI50 (TC50/IC50): 8.9
HAdV-C2-dE3B-GFP-dADP; Human adenovirus sp., HeLa
  EC50: 4.68 µM
HAdV-C2-dE3B-GFP [3]
  reduction of total yield of infectious particles in the supernatant: 3 orders of magnitude
HAdV-C2-dE3B-GFP [4]
  effect on GFP or hexon expression: no effect
